{
  "source": "patent US8969612B2",
  "about": "“Low interfacial tension surfactants for petroleum applications” (Soane Energy, LLC, priority 2009, dated 2015)",
  "type_in_all_cases": "physicochemical",
  "key": {"[1]": {"experiment": "Interfacial tension, Du Nouys ring tensiometer (Example 14), interface with air", "settings": "1% by weight solution, neutral pH (5 M NaOH)", "description": "(§1) Surfactant molecules were tested for their ability to decrease the surface tension across the aqueous-organic interface."}, "[2]": {"experiment": "Viscosity of 70:30 heavy oil to water mixture, Brookfield rheometer (Example 16)", "description": "The mixture was gently stirred until it was observed it achieved a single liquid phase. Previously, the viscosity of the neat heavy oil sample was measured at 3431 cP using a Brookfield DVIII+ Rheometer. […] Next, 1 mL of 10 M HCl was added and the mixture was stirred gently, while observing phase separation of the oil and water."}, "[3]": {"experiment": "Interfacial tension, Du Nouys ring tensiometer (Example 14), interface with light crude oil", "settings": "1% by weight solution, neutral pH (5 M NaOH); light crude oil API=37.4°", "description": "as §1"}, "[4]": {"experiment": "Interfacial tension, Du Nouys ring tensiometer (Example 14), interface with ISOPAR M", "settings": "1% by weight solution, neutral pH (5 M NaOH)", "description": "as §1"}, "[5]": {"experiment": "Solubility in water at 25° C."}},
  "data": [
    {"compound": "2-(nonen-1-yl)succinic acid mono (2-cyclohexylethyl) ester [Example 3]", "values": [
      {"measurement": "IFT w/air", "setting": "[1]", "value": 28.68, "unit": "mN/m"},
      {"measurement": "viscosity of the 70:30 oil to water mixture", "setting": "[2]; 105 mL heavy oil + 45 mL 1% surfactant solution, neat heavy oil 3431 cP", "value": 100.2, "unit": "cP"},
      {"measurement": "viscosity of oil decanted after phase separation with HCl", "setting": "[2]; after addition of 1 mL of 10 M HCl to the 70:30 mixture", "value": "same viscosity measurement as the untreated heavy oil sample"},
      {"measurement": "IFT w/Crude Oil", "setting": "[3]", "value": "<0.01", "unit": "mN/m"},
      {"measurement": "IFT w/ISOPAR", "setting": "[4]", "value": 0.09, "unit": "mN/m"}
    ]},
    {"compound": "CCCCCC/C=C/CC(CC(=O)OCC(C)(C)COC(=O)CC(C/C=C/CCCCCC)C(=O)O)C(=O)O", "note": "(stereo not drawn) [Example 2]", "values": [
      {"measurement": "solubility in water (in words)", "setting": "[5]", "value": "very limited solubility in water"}
    ]}
  ]
}
